Laboratory results taken from US10196604B2, “Mitochondrial inhibitors for use in culturing pluripotent stem cells” (The Board of Trustees of the Leland Stanford Junior …, priority 2014, dated 2019).

Key:
[1] = test system: human embryonic stem cells; assay: Toxicity testing of mitochondrial inhibitors on hES cells (72 hr culture, crystal violet staining); settings: for nontoxic concentration (no toxicity up to): tested from 0.1 mM to 50 mM
Description: Human ES cells, WA09 (WiCell Research Institute, Madison, Wis.) were cultured on dishes coated for at least two hours with Matrigel (BD Biosciences, Franklin Lakes, N.J.). hES cell media containing 80% knockout Dulbecco's modified eagle medium (DMEM), 20% knockout serum replacer, 1% nonessential amino acids, 1% penicillin/streptomycin (100 U per 100 μg/ml), 2 mM L-glutamine, (all from Invitrogen, Carlsbad, Calif.) and 4 ng/ml basic fibroblast growth factor (bFGF, ReproCELL, San Jose, Calif.) was pre-conditioned by culture with inactivated mouse embryonic fibroblasts (MEF; Millipore, Billerica, Mass.) and collected every two days. hES cell lines were cultured with human conditioned media (HuCM) supplemented with 4 ng/ml bFGF and a heterocyclic compound of a certain concentration. hES cells were maintained by weekly manual passaging or bulk passaging using 1 mg/ml Collagenase IV (Invitrogen). hES cells were plated for experiments using Accutase (Fisher, Pittsburgh, Pa.) and plated at a density of 26,000 cells/cm^2.
Toxicity Testing hES cells were plated as above and subjected to increasing concentrations of the mitochondrial inhibitors for 72 hr of culture. After 72 hr the cells were fixed in 2.0% formaldehyde and stained for 30 min with 0.05% crystal violet in distilled water. Stained cells were rinsed twice with distilled water and imaged using bright field microscopy.
These compounds were initially tested at concentrations from 0.1 mM to 50 mM.

NANOG [2] = assay: qRT-PCR gene expression in hES cells: NANOG; type: cell-based; settings: Homo sapiens, 72 hours, normalized to β-ACTIN, read-out: Expression relative to control, NANOG; for fold induction at 1000 µM: 1 mM
Description: (§1) Total cellular RNA was extracted from cells using TRIzol (Invitrogen) and DNase treated with the DNA-free kit (Ambion, Austin, Tex., http (colon slash slash) www (dot) ambion.com) following manufacturer's directions for stringent conditions. RNA was dialyzed for 30 minutes against milliqwater, 10 mM Tris and 1 mM EDTA adjusted to pH 7.5 with HCL (all from Fisher). cDNA was synthesized using GeneAmp RNA PCR kit from Applied Biosciences (Fisher) and no-RT reactions were performed without reverse transcriptase and RNase inhibitor enzymes. One microgram of RNA was used, following manufacturer's directions. Quantitative real time polymerase chain reaction (qPCR) was performed to determine relative mRNA expression levels. Expression fold changes were calculated using the ΔΔCt method and normalized using the housekeeping gene, β-ACTIN as an internal control. Taqman master mix and gene assays with water only were used as a negative control. mRNA expression assays were analyzed in a triplicate PCR reaction with no-RT negative controls and each experiment was performed at least three independent times. Primers for OCT4 and NANOG were selected from predeveloped Applied Biosystems TaqMan Assays, which are pre-designed qPCR primers and TaqMan MGB probes; Oct-4 (Hs01895061_u1) and Nanog (Hs02387400_g1) were selected. Primers for SURVIVIN were: […]
(§2) Based on the toxicity results, nine of the above twelve compounds in Example 1 were selected for further screening to assess their effects on the expression of OCT4, NANOG and SURVIVIN in human embryonic stem cells. The results are summarized in Table 2, along with the mitochondrial inhibition activities for these compounds which were disclosed in US20110301180A1 to Collman et al. the content of which has been incorporated herein by reference.
(§3) The pluripotency of these cultured human embryonic stem cells were characterized by the marker gene expression as analyzed by Quantitative Reverse Transcriptase PCR (qRT-PCR). All compounds were tested at 1 mM concentration for 72 hours except for compound 1 which was tested at 10 μM. The reversibility of mitochondrial inhibition is presented in the right column.

[3] = test system: mitochondrial respiration; settings: cited from earlier work; for Inhibition/Reversibility in mitochondrial inhibition: disclosed in US20110301180A1; for mitochondrial inhibition IC50: values from US 20110301180
OCT4 = assay: qRT-PCR gene expression in hES cells: OCT4; type: cell-based, human; settings: 72 hours
Description: as §1, §2, §3

SURVIVIN = assay: qRT-PCR gene expression in hES cells: SURVIVIN; type: cell-based; settings: Homo sapiens, 72 hours, normalized to β-ACTIN, read-out: Expression relative to control, SURVIVIN; for fold induction at 1000 µM: 1 mM
Description: as §1, §2, §3

SURVIVIN, OCT4 and NANOG = assay: qRT-PCR of the three probed genes together (SURVIVIN, OCT4, NANOG) in hES cells; type: cell-based, human; settings: 72 hours
Description: as §1, §2, §3

NANOG [4] = settings: human embryonic stem cells; cited from earlier work
[5] = Solubility in the culture media; type: physicochemical; settings: hES cell culture media
Text: Compound 2 was not soluble in the culture media and was not tested further.

[6] = Homo sapiens, 1 mM, normalized to β-ACTIN, read-out: Expression relative to control, OCT4

Row | Structure (SMILES) | Inhibition/Reversibility in mitochondrial inhibition [3] | mitochondrial inhibition IC50 [3] [mg/mL] | fold induction at 1000 µM (NANOG [2]) | fold induction at 1000 µM (OCT4; [6]) | fold induction at 1000 µM (SURVIVIN) | One of the genes overexpressed by at least 10% (SURVIVIN, OCT4 and NANOG; 1 mM) | change in expression of SURVIVIN, OCT4 and NANOG following treatment (FIG. 2) (SURVIVIN, OCT4 and NANOG; 1 mM) | also measured
1 | Cc1ncsc1CCOC(=O)C[P+](c1ccccc1)(c1ccccc1)c1ccccc1.[Br-] [Compound 1, [2-[2-(4-methylthiazol-5-yl)ethoxy]-2-oxo-ethyl]-triphenyl-phosphonium bromide] | No | 8.8 | – | – | – | – | – | toxicity at the initially tested concentrations ([1]; initial range 0.1 mM to 50 mM): toxic at all concentrations tested initially; nontoxic / well tolerated concentration (up to) ([1]; retested at 0.1 to 100 μM): up to 10 μM; fold induction at 10 µM (NANOG [2]; 10 μM): 0.902; fold induction at 10 µM (OCT4; Homo sapiens, 10 μM, normalized to β-ACTIN, read-out: Expression relative to control, OCT4): 0.9; fold induction at 10 µM (SURVIVIN; 10 μM): 0.892; One of the genes overexpressed by at least 10% (SURVIVIN, OCT4 and NANOG; 10 μM): No; change in expression of SURVIVIN, OCT4 and NANOG following treatment (FIG. 2) (SURVIVIN, OCT4 and NANOG; 10 μM): decreased expression of all three genes
2 | Cc1cncs1 [Compound 4, 5-methylthiazole] | reversible mitochondrial inhibitors and Yes | 23.5 | 1.14 | 1.13 | 1.27 | Yes | increased expression of all three genes | nontoxic concentration (no toxicity up to) [1]: ≤ 10 mM
3 | Nc1nnn[nH]1 [Compound 7, 1H-tetrazol-5-amine] | reversible mitochondrial inhibitors and Yes | 8.5 | 0.917 | 1.53 | 1.73 | Yes | increased expression of SURVIVIN and OCT4 but not NANOG | OCT4 overexpression (OCT4; 1 mM, vs control): at least 50%
4 | CCCCCC[C@H]1C(=O)O[C@H](C)[C@H](NC(=O)c2cccc(NC=O)c2O)C(=O)O[C@@H](C)[C@@H]1OC(=O)CC(C)C [Antimycin A, [(2R,3S,6S,7R,8R)-3-[(3-formamido-2-hydroxybenzoyl)amino]-8-hexyl-2,6-dimethyl-4,9-dioxo-1,5-dioxonan-7-yl] 3-methylbutanoate] | – | – | – | – | – | – | – | effect on expression of pluripotency factor NANOG (NANOG [4]): increase in the expression of pluripotency factor NANOG
5 | Cc1nnn[nH]1 [Compound 10, 5-methyl-1H-tetrazole] | – | – | 0.778 | 0.977 | 0.981 | No | decreased expression of all three genes | –
6 | Brc1nn[nH]c1Br [Compound 9, 4,5-dibromo-1H-triazole] | – | – | – | – | – | – | – | toxicity at 1 mM ([1]; 1 mM): minimal toxicity; nontoxic concentration (no toxicity up to) [1]: up to 0.1 mM
7 | Cn1c(-c2ccccc2)cnc1S [Compound 5, 3-methyl-4-phenyl-1H-imidazole-2-thione] | – | 5.4 | 1.16 | 1.5 | 1.44 | Yes | increased expression of all three genes | nontoxic concentration (no toxicity up to) [1]: at least 5 mM
8 | O=C(O)CCCC[C@H]1CCSS1 (single isomer, unassigned) [Compound 3, 5-[(3R or 3S)-dithiolan-3-yl]pentanoic acid] | – | 37.1 | 0.717 | 1.85 | 1.11 | Yes | increased expression of SURVIVIN and OCT4 but not NANOG | –
9 | c1ccc(CSc2nnn[nH]2)cc1 [Compound 2, 5-benzylsulfanyl-1H-tetrazole] | – | – | – | – | – | – | – | solubility in the culture media [5]: not soluble
10 | CCOC(=O)Cc1nnn[nH]1 [Compound 6, ethyl 2-(1H-tetrazol-5-yl)acetate] | – | 100 | 0.867 | 1.34 | 1.75 | Yes | increased expression of SURVIVIN and OCT4 but not NANOG | –
11 | O=C(O)Cc1nnn[nH]1 [Compound 11, 2-(1H-tetrazol-5-yl)acetic acid] | – | – | 0.849 | 1.07 | 0.975 | No | increase in OCT4 and no other genes | –
12 | CSc1nnn[nH]1 [Compound 12, 5-methylsulfanyl-1H-tetrazole] | reversible mitochondrial inhibitors and Yes | 14.5 | 0.844 | 1.16 | 1.05 | Yes | increased expression of SURVIVIN and OCT4 but not NANOG | –
